Experimental data: EP0252524A2, “Aryl- and aralkylamide- derivatives of Omega- (substituted-phenyloxy)-alkanoic acids as inhibitors of acyl-coa: cholesterol acyltransferase and pharmaceuticals containing them” (WARNER-LAMBERT COMPANY, priority 1986, dated 1988)

Each molecule was assayed against acyl-CoA:cholesterol acyltransferase (ACAT) (assay: in vitro ACAT inhibition test: radio-labeled cholesteryl oleate formed from radio-labeled oleic acid in intestinal microsomes). Details: concentration required to inhibit cholesteryl oleate formation to 50% of control; tissue preparation containing rabbit intestinal microsomes.
Assay type: biochemical
Protocol: The ability of representative compounds of the present invention to inhibit ACAT was measured using an in vitro test more fully described in Field, F. J. and Salone, R. G., Biochemica et Biophysica 712: 557-570 (1982). The test assesses the ability of a test compound to inhibit the acylation of cholesterol by oleic acid by measuring the amount of radio-labeled cholesterol oleate formed from radio-labeled oleic acid in a tissue preparation containing rabbit intestinal microsomes.
The data appear in the Table where they are expressed as IC₅₀ values; i.e. the concentration of test compound required to inhibit cholesteryl oleate formation to 50% of control.

SMILES	IC50
Cc1ccc(OCCCC(C)(C)C(=O)NC(C)c2ccccn2)cc1 (centres unmarked) [Example 1, 2,2-dimethyl-5-(4-methylphenoxy)-N-[1-(2-pyridinyl)ethyl]pentanamide]	4800 nM
CCCCc1ccc(OCCCC(C)(C)C(=O)Nc2ccccc2OC)cc1 [Example 2, 5-(4-butylphenoxy)-N-(2-methoxyphenyl)-2,2-dimethylpentanamide]	4300 nM
CCCCc1ccc(OCCCC(C)(C)C(=O)Nc2ccc(C)cc2OC)cc1 [Example 3, 5-(4-butylphenoxy)-N-(2-methoxy-4-methylphenyl)-2,2-dimethylpentanamide]	2400 nM
CCCCc1ccc(OCCCC(C)(C)C(=O)Nc2c(OC)cc(OC)cc2OC)cc1 [Example 4, 5-(4-butylphenoxy)-2,2-dimethyl-N-(2,4,6-trimethoxyphenyl)-pentanamide]	460 nM
CCCCc1ccc(OCCCC(C)(C)C(=O)NC(C)c2ccccn2)cc1 (centres unmarked) [Example 5, 5-(4-butylphenoxy)-2,2-dimethyl-N-[1-(2-pyridinyl)ethyl]pentanamide]	800 nM
CCCCc1ccc(OCCCC(C)(C)C(=O)Nc2c(OC)ncnc2OC)cc1 [Example 7, 5-(4-butylphenoxy)-N-(4,6-dimethoxy-5-pyrimidinyl)-2,2-dimethylpentanamide]	9000 nM
Cc1ccc(NC(=O)C(C)(C)CCCOc2ccc(C(C)(C)C)cc2)c(C)c1 [Example 8, 5-[4-(1,1-dimethylethyl)phenoxy]-N-(2,4-dimethylphenyl)-2,2-dimethylpentanamide]	1400 nM
CC(C)(CCCOc1ccc(C(C)(C)C)cc1)C(=O)Nc1ccc(F)cc1F [Example 9, N-(2,4-difluorophenyl)-5-[4-(1,1-dimethylethyl)phenoxy]-2,2-dimethylpentanamide]	1200 nM
COc1cc(OC)c(NC(=O)C(C)(C)CCCOc2ccc(C(C)(C)C)cc2)c(OC)c1 [Example 10, 5-[4-(1,1-dimethylethyl)phenoxy]-2,2-dimethyl-N-(2,4,6-trimethoxyphenyl)pentanamide]	44 nM
CC(NC(=O)C(C)(C)CCCOc1ccc(C(C)(C)C)cc1)c1ccccn1 (centres unmarked) [Example 12, 5-[4-(1,1-dimethylethyl)phenoxy]-2,2-dimethyl-N-[1-(2-pyridinyl)ethyl]pentanamide]	700 nM
CCC(C)(C)c1ccc(OCCCC(C)(C)C(=O)NC(C)c2ccccn2)cc1 (centres unmarked) [Example 13, 5-[4-(1,1-dimethylpropyl)phenoxy]-2,2-dimethyl-N-[1-(2-pyridinyl)ethyl]pentanamide]	160 nM
CCCCCCc1ccc(OCCCC(C)(C)C(=O)NC(C)c2ccccn2)cc1 (centres unmarked) [Example 15, 5-(4-hexylphenoxy)-2,2-dimethyl-N-[1-(2-pyridinyl)ethyl]pentanamide]	700 nM
CCCCCCCCc1ccc(OCCCC(C)(C)C(=O)Nc2c(OC)cc(OC)cc2OC)cc1 [Example 16, 2,2-dimethyl-5-(4-octylphenoxy)-N-(2,4,6-trimethoxyphenyl)pentanamide]	800 nM
CCCCCCCCc1ccc(OCCCC(C)(C)C(=O)NC(C)c2ccccn2)cc1 (centres unmarked) [Example 17, 2,2-dimethyl-5-(4-octylphenoxy)-N-[1-(2-pyridinyl)ethyl]pentanamide]	450 nM
